# Patent US20050208549A1, “Testing endosymbiont cellular organelles and compounds identifiable therewith” (priority 2000, published 2005)
# Assays:
# [1] = Peripheral atrophy, Lipodystrophy; d4T > others; cited from earlier work
# [2] = tested on: peripheral blood mononuclear cells (PBMCs); assay: NASBA ratio of mitochondrial RNA to chromosome-encoded RNA in cultured PBMCs; type: cell-based, human (healthy blood donor); details: culture period of five days, 6 μM and 60 μM
# Protocol: (§1) In Table 1, the primers and probes used in the examples are summarized. Standard NASBA nucleic acid amplification reactions were performed in a 20 μl reaction volume and contained: 40 mM Tris-pH 8.5, 70 mM KCl, 12 mM MgCl2, 5 mM dithiothreitol, 1 mM dNTPs (each), 2 mM rNTPs (each), 0.2 μM primer (each), 0.05 μM molecular beacon, 375 mM sorbitol, 0.105 μg/μl bovine serum albumin, 6.4 units AMV RT, 32 units T7 RNA polymerase, 0.08 units RNAse H and input nucleic acid. The complete mixture, except the enzymes, sorbitol and/or bovine serum albumin was, prior to adding the enzyme mixture, heated to 65° C. for two minutes in order to denature any secondary structure in the RNA and to allow the primers to anneal. After cooling the mixture to 41° C., the enzymes were added. The amplification took place at 41° C. for 90 minutes in a fluorimeter (CytoFluor 2000) and the fluorescent signal was measured every minute (using the filter set 530/25 nm and 485/30 nm). For amplification of DNA target sequences, the 65° C. denaturation step was replaced with a 95° C. denaturation step for two to five minutes.
# (§2) To achieve quantification, a dilution series of target sequences for a particular primer set was amplified and the time points at which the reactions became positive (the time to positivity, TTP) were plotted against the input amounts of nucleic acid. This way a calibration curve was created that could be used to read TTP values of reactions with unknown amounts of input and deduce the input amount.
# Cells (fibroblasts and PBMCs) were cultured under standard conditions in standard media known to persons skilled in the art with the addition of drugs or putative toxic or stimulating compounds as defined in the examples. […] A small aliquot of the isolated nucleic acid was analyzed on an agarose gel and the remainder stored at −80° C. until further analysis. […]
# Fibroblast cells [3] = assay: NASBA ratio of mitochondrial RNA to mitochondrial DNA in cultured fibroblast cells; type: cell-based; details: culture period of four weeks, antiviral drugs at 3 μM and 30 μM
# Protocol: as §1, with “For amplification of DNA target sequences, the 65° C. denaturation step was replaced with a 95° C. denaturation step for two to five minutes.” left out
# as §2, with “amount. […]” for “amount.”
# Fibroblast cells [4] = assay: NASBA ratio of mitochondrial RNA to chromosome-encoded RNA in cultured fibroblast cells; type: cell-based; details: culture period of four weeks, antiviral drugs at 3 μM and 30 μM
# Protocol: as §1, with “For amplification of DNA target sequences, the 65° C. denaturation step was replaced with a 95° C. denaturation step for two to five minutes.” left out
# as §2, with “amount. […]” for “amount.”
# Fibroblast cells [5] = assay: NASBA ratio of mitochondrial DNA to chromosomal DNA in cultured fibroblast cells; type: cell-based; details: culture period of four weeks, antiviral drugs at 3 μM and 30 μM
# Protocol: as §1, with “For amplification of DNA target sequences, the 65° C. denaturation step was replaced with a 95° C. denaturation step for two to five minutes.” left out
# as §2, with “amount. […]” for “amount.”
# Fibroblast cells [6] = assay: NASBA ratio of mitochondrial RNA to chromosomal DNA in cultured fibroblast cells; type: cell-based; details: culture period of four weeks, antiviral drugs at 3 μM and 30 μM
# Protocol: as §1, with “For amplification of DNA target sequences, the 65° C. denaturation step was replaced with a 95° C. denaturation step for two to five minutes.” left out
# as §2, with “amount. […]” for “amount.”
# Fibroblast cells [7] = assay: NASBA ratio of chromosome-encoded RNA to chromosomal DNA in cultured fibroblast cells; type: cell-based; details: culture period of four weeks, antiviral drugs at 3 μM and 30 μM
# Protocol: as §1, with “For amplification of DNA target sequences, the 65° C. denaturation step was replaced with a 95° C. denaturation step for two to five minutes.” left out
# as §2, with “amount. […]” for “amount.”
Structure (SMILES),"Rate (%) of mitochondrial toxicity, affected organ Fat [1] [%]",change in ratio of mitochondrial RNA to chromosome-encoded RNA [2],change in mitochondrial RNA to mitochondrial DNA ratio (Fibroblast cells [3]),change in mitochondrial RNA to chromosome-encoded RNA ratio (Fibroblast cells [4]),change in mitochondrial DNA to chromosomal DNA ratio (Fibroblast cells [5]),change in mitochondrial RNA to chromosomal DNA ratio (Fibroblast cells [6]),change in ratio of chromosome-encoded RNA and chromosomal DNA (Fibroblast cells [7])
Cc1cn([C@H]2C=C[C@@H](CO)O2)c(=O)[nH]c1=O [D4T],50,no measurable change,–,–,–,–,–
CC[n+]1c(-c2ccccc2)c2cc(N)ccc2c2ccc(N)cc21 [ethidium bromide],–,–,decline in mitochondrial RNA and DNA content,decline in mitochondrial RNA content,decline in mitochondrial DNA content,decline in mitochondrial RNA content,no measurable change
